Experimental data taken from ChEMBL document CHEMBL2169754, “Imidazo[1,2-a]pyridines That Directly Interact with Hepatitis C NS4B: Initial Preclinical Characterization” (ACS Med Chem Lett, 2012).

Experiments:
Hepatitis C virus [1] = assay: Binding affinity to HCV genotype 1b His6-tagged NS4B expressed in baculovirus infected Sf9 cells after overnight incubation; settings: Hepatitis C virus subtype 1b, tested as the 3H-labelled form
Hepatitis C virus [2] = assay: Antiviral activity against wild type HCV genotype 1b infected in human HuH7 cells after 48 hrs by luciferase reporter gene assay; type: functional, organism-based, Hepacivirus hominis; settings: Huh-7, 48 h
Hepatitis C virus [3] = assay: Antiviral activity against wild type HCV genotype 1a infected in human HuH7 cells after 48 hrs by luciferase reporter gene assay; type: functional, organism-based, Hepacivirus hominis; settings: subtype 1a, Huh-7, 48 h
[4] = Solubility of the compound; type: physicochemical
Hepatitis C virus [5] = assay: Displacement of [3H]-3-(1-(3-chloro-6-isopropyl-8-(trifluoromethyl)imidazo[1,2-a]pyridine-2-carbonyl)piperidin-4-yl)oxazolidin-2-one from HCV genotype 1b His6-tagged NS4B expressed in baculovirus infected Sf9 cells after overnight incubation; design: species or system Hepatitis C virus subtype 1b
[6] = AUC (0 to 24 hrs) in beagle dog at 5 mg/kg, po; type: ADME, organism-based, Canis lupus familiaris; design: time < 24 hr, dose 5 mg/kg, route oral; settings: plasma
Hepatitis C virus [7] = assay: Ratio of EC50 for HCV genotype 1b expressing NS4B V105N mutant to EC50 for wild type HCV genotype 1b; type: functional, Hepacivirus hominis
[8] = Half life in beagle dog at 5 mg/kg, po; type: ADME, organism-based, Canis lupus familiaris; design: dose 5 mg/kg, route oral; settings: in vivo
Hepatitis C virus [9] = assay: Antiviral activity against HCV genotype 1b expressing NS4B H94R mutant transiently infected in human HuH7 cells after 48 hrs by luciferase reporter gene assay; type: functional, organism-based, Hepacivirus hominis; settings: Huh-7, 48 h
Liver microsomes [10] = assay: Drug metabolism in rat liver microsomes assessed as reactive metabolite formation at 10 uM after 30 mins by glutathione trapping assay; type: ADME, Microsome; settings: 0.5 h
Cytochrome P450 1A2 = target: T1, Cytochrome P450 1A2 (Homo sapiens, UniProt P05177); assay: Inhibition of CYP1A2 in human liver microsomes after 10 mins by LC/MS/MS analysis; type: ADME, Microsome
T1 sequence (P05177 whole entry): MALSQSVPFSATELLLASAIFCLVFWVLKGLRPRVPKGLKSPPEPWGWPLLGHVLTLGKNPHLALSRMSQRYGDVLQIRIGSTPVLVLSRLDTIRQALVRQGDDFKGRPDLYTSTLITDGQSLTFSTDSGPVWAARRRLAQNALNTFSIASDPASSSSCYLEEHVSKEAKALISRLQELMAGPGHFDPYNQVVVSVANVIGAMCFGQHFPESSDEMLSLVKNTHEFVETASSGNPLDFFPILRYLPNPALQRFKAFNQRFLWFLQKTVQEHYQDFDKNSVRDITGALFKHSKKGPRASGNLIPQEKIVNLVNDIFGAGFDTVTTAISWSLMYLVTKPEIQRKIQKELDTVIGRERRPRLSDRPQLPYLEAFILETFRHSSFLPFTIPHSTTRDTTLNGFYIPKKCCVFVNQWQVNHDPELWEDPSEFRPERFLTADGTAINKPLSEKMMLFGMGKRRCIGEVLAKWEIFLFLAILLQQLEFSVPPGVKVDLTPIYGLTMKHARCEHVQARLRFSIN

Hepatitis C virus [11] = assay: Antiviral activity against HCV genotype 1b expressing NS4B V105M mutant stably infected in human HuH7 cells after 48 hrs by luciferase reporter gene assay; type: functional, organism-based, Hepacivirus hominis; settings: Huh-7, 48 h
Hepatitis C virus [12] = assay: Ratio of EC50 for HCV genotype 1b expressing NS4B H94N mutant to EC50 for wild type HCV genotype 1b; type: functional, Hepacivirus hominis
[13] = Clearance in beagle dog at 1 mg/kg, iv; type: ADME, organism-based, Canis lupus familiaris; design: dose 1 mg/kg, route intravenous; settings: in vivo
[14] = Clearance in Sprague-Dawley rat at 1 mg/kg, iv; type: ADME, organism-based; design: dose 1 mg/kg, route intravenous; settings: in vivo
Cytochrome P450 2C9 = Cytochrome P450 2C9 (Homo sapiens, UniProt P11712); assay: Inhibition of CYP2C9 in human liver microsomes after 10 mins by LC/MS/MS analysis; type: ADME, Microsome
Chain of Cytochrome P450 2C9 (P11712 whole entry): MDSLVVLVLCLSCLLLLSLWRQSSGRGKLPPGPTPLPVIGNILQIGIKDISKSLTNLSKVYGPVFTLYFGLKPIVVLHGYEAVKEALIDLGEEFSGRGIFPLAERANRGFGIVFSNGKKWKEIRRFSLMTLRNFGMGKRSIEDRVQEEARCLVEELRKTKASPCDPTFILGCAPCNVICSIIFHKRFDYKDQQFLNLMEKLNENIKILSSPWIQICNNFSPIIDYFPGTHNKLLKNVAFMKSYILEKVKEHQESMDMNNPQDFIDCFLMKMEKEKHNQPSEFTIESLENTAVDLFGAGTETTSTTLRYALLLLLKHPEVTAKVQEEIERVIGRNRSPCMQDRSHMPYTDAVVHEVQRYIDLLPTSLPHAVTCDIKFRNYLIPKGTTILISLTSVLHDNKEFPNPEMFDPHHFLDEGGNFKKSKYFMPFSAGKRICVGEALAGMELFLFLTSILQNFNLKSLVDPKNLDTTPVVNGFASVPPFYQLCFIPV

Hepatitis C virus [15] = assay: Antiviral activity against HCV genotype 1b expressing NS5B M414T mutant transiently infected in human HuH7 cells after 48 hrs by luciferase reporter gene assay; type: functional, organism-based, Hepacivirus hominis; settings: Huh-7, 48 h
Hepatitis C virus [16] = assay: Antiviral activity against HCV genotype 1b expressing NS4B V105L mutant transiently infected in human HuH7 cells after 48 hrs by luciferase reporter gene assay; type: functional, organism-based, Hepacivirus hominis; settings: Huh-7, 48 h
Cytochrome P450 2C19 = Cytochrome P450 2C19 (Homo sapiens, UniProt P33261); assay: Inhibition of CYP2C19 in human liver microsomes after 10 mins by LC/MS/MS analysis; type: ADME, Microsome
Chain of Cytochrome P450 2C19 (P33261 whole entry): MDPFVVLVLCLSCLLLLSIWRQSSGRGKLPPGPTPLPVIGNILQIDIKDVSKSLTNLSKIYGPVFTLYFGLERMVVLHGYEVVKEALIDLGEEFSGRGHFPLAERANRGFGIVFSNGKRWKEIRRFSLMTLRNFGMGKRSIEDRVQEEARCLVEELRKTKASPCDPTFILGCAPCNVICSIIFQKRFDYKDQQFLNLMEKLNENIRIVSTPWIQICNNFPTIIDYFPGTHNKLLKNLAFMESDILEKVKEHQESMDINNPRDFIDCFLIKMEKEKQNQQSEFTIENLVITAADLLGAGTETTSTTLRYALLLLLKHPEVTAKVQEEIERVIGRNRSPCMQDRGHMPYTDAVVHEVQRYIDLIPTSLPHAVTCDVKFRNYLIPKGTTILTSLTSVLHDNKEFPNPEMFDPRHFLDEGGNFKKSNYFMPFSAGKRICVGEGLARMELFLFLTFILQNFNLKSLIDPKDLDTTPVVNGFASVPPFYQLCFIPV

[17] = Half life in Sprague-Dawley rat at 5 mg/kg, po; type: ADME, organism-based; design: dose 5 mg/kg, route oral; settings: in vivo
Hepatitis C virus [18] = assay: Antiviral activity against HCV genotype 1b expressing NS3 A156T mutant transiently infected in human HuH7 cells after 48 hrs by luciferase reporter gene assay; type: functional, organism-based, Hepacivirus hominis; settings: Huh-7, 48 h
Liver microsomes [19] = assay: Drug metabolism in human liver microsomes assessed as reactive metabolite formation at 10 uM after 30 mins by glutathione trapping assay; type: ADME, Microsome; settings: 0.5 h
Cytochrome P450 3A4 = Cytochrome P450 3A4 (Homo sapiens, UniProt P08684); assay: Inhibition of CYP3A4 in human liver microsomes after 7 mins by LC/MS/MS analysis; type: ADME, Microsome
Chain of Cytochrome P450 3A4 (P08684 whole entry): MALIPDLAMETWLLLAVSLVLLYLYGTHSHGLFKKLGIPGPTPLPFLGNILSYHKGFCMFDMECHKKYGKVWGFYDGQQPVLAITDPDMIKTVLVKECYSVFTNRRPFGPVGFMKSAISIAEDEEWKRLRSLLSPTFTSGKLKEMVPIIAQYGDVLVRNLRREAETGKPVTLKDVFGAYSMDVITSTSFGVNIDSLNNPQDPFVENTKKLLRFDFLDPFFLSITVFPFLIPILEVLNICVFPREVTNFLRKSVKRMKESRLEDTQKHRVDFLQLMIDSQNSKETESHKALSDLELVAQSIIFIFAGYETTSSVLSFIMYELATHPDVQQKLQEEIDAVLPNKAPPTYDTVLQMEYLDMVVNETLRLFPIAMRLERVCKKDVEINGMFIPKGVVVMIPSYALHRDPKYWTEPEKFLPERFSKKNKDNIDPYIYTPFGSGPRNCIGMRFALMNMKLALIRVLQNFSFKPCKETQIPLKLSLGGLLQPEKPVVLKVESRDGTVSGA

Hepatitis C virus [20] = assay: Antiviral activity against HCV genotype 1b expressing NS4B H94N mutant stably infected in human HuH7 cells after 48 hrs by luciferase reporter gene assay; type: functional, organism-based, Hepacivirus hominis; settings: Huh-7, 48 h
[21] = Volume of distribution at steady state in beagle dog at 1 mg/kg, iv; type: ADME, organism-based, Canis lupus familiaris; design: dose 1 mg/kg, route intravenous; settings: in vivo, read-out: Vdss
Cytochrome P450 2D6 = Cytochrome P450 2D6 (Homo sapiens, UniProt P10635); assay: Inhibition of CYP2D6 in human liver microsomes after 10 mins by LC/MS/MS analysis; type: ADME, Microsome
Chain of Cytochrome P450 2D6 (P10635 whole entry): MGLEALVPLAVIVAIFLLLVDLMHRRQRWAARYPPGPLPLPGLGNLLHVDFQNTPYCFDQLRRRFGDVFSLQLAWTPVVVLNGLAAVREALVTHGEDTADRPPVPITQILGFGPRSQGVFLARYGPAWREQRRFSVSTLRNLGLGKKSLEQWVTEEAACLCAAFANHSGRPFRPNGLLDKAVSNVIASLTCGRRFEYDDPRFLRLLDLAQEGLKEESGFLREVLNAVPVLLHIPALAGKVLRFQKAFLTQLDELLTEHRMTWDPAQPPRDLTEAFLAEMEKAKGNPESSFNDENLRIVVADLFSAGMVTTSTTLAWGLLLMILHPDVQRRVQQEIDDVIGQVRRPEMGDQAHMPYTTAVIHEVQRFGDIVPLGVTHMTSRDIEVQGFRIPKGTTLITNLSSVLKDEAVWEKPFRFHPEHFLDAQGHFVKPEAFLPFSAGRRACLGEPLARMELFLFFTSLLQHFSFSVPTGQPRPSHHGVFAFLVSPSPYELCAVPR

[22] = Oral bioavailability in Sprague-Dawley rat at 5 mg/kg; type: ADME, organism-based; settings: in vivo
[23] = AUC (0 to 24 hrs) in Sprague-Dawley rat at 5 mg/kg, po; type: ADME, organism-based; design: time < 24 hr, dose 5 mg/kg, route oral; settings: plasma
Hepatitis C virus [24] = assay: Antiviral activity against HCV genotype 1b expressing NS4B F98L mutant transiently infected in human HuH7 cells after 48 hrs by luciferase reporter gene assay; type: functional, organism-based, Hepacivirus hominis; settings: Huh-7, 48 h
Hepatitis C virus [25] = assay: Antiviral activity against HCV genotype 1b expressing NS5A L31V mutant transiently infected in human HuH7 cells after 48 hrs by luciferase reporter gene assay; type: functional, organism-based, Hepacivirus hominis; settings: Huh-7, 48 h
[26] = Volume of distribution at steady state in Sprague-Dawley rat at 1 mg/kg, iv; type: ADME, organism-based; design: dose 1 mg/kg, route intravenous; settings: in vivo, read-out: Vdss
[27] = Oral bioavailability in beagle dog at 5 mg/kg; type: ADME, organism-based, Canis lupus familiaris; settings: in vivo

Work on `O=C(c1nc2c(C(F)(F)F)cc(-c3cn[nH]c3)cn2c1Br)N1CCC(c2cccs2)C1` (stereo not given) yielded a Kapp (Hepatitis C virus [1]) of 76 nM, an EC50 (Hepatitis C virus [2]) of under 55 nM and an EC50 (Hepatitis C virus [3]) of under 55 nM.
`O=C(c1nc2c(C(F)(F)F)cc(-c3ccoc3)cn2c1Cl)N1CCN([C@H]2CC[C@H](O)CC2)C(=O)C1` gave a solubility [4] of over 500 µM, an EC50 (Hepatitis C virus [2]) of 9.7 nM and an EC50 (Hepatitis C virus [3]) of 0.9 nM. It also gave an IC50 (Hepatitis C virus [5]) of 43 nM.
In the case of `O=C(c1nc2c(C(F)(F)F)cc(-c3ccoc3)cn2c1Cl)N1CCC(c2cccs2)CC1`, the EC50 (Hepatitis C virus [2]) is reported as 110 nM, the EC50 (Hepatitis C virus [3]) is reported as 220 nM and the IC50 (Hepatitis C virus [5]) is reported as 5.3 nM.
With `O=C(c1nc2c(C(F)(F)F)cc(-c3ccoc3)cn2c1Cl)N1CCN([C@H]2CC[C@@H](O)CC2)C(=O)C1` the solubility [4] was over 500 µM, the EC50 (Hepatitis C virus [2]) was 300 nM and the EC50 (Hepatitis C virus [3]) was 150 nM. For the same compound, the IC50 (Hepatitis C virus [5]) was 250 nM.
`[3H]CC([3H])(C)c1cc(C(F)(F)F)c2nc(C(=O)N3CCC(N4CCOC4=O)CC3)c(Cl)n2c1` (stereo not given) showed an IC50 (Hepatitis C virus [5]) of 30 nM.
For `O=C(c1nc2c(C(F)(F)F)cc(-c3ccoc3)cn2c1Cl)N1CCN(c2ccccc2)C(=O)C1`, the EC50 (Hepatitis C virus [2]) was 160 nM, the EC50 (Hepatitis C virus [3]) was 430 nM and the IC50 (Hepatitis C virus [5]) was 24 nM.
`O=C(NCc1cccs1)c1cc2nc(-c3ccco3)cc(C(F)(F)Cl)n2n1` [ANGUIZOLE] showed an EC50 (Hepatitis C virus [2]) of 450 nM, an EC50 (Hepatitis C virus [3]) of 740 nM and an IC50 (Hepatitis C virus [5]) of 22 nM.
For `O=C(c1nc2c(C(F)(F)F)cc(C3CC3)cn2c1Cl)N1CCN([C@H]2CC[C@H](O)CC2)C(=O)C1`, the AUC(0-t) at 24 h [6] was 52000 ng·h/mL, the solubility [4] was over 500 µM and the “Ratio EC50” value (Hepatitis C virus [7]) was over 100. The half-life [8] was 10 h, the EC50 (Hepatitis C virus [9]) was 53 nM and the EC50 (Hepatitis C virus [2]) was 5.4 nM. For the same compound, the Drug metabolism (Liver microsomes [10]) was “Not Active”, the “inhibition (INH)” value (Cytochrome P450 1A2) was “Not Active” and the EC50 (Hepatitis C virus [11]) was 800 nM. For the same compound, the “Ratio EC50” value (Hepatitis C virus [12]) was over 100, the clearance [13] was 1.1 mL/min/kg and the clearance [14] was 20 mL/min/kg. For the same compound, the “inhibition (INH)” value (Cytochrome P450 2C9) was “Not Active”, the EC50 (Hepatitis C virus [15]) was 1 nM and the EC50 (Hepatitis C virus [16]) was 38 nM. The EC50 (Hepatitis C virus [3]) was 0.81 nM, the “inhibition (INH)” value (Cytochrome P450 2C19) was “Not Active” and the half-life [17] was 3 h. For the same compound, the EC50 (Hepatitis C virus [18]) was 1 nM, the Drug metabolism (Liver microsomes [19]) was “Not Active” and the “inhibition (INH)” value (Cytochrome P450 3A4) was “Not Active”. The EC50 (Hepatitis C virus [20]) was 200 nM, the Vd [21] was 0.9 L/kg and the “inhibition (INH)” value (Cytochrome P450 2D6) was “Not Active”. The bioavailability [22] was 98%, the IC50 (Hepatitis C virus [5]) was 60 nM and the AUC(0-t) at 24 h [23] was 3800 ng·h/mL. The EC50 (Hepatitis C virus [24]) was 27 nM, the EC50 (Hepatitis C virus [25]) was 1 nM and the Vd [26] was 4.1 L/kg. For the same compound, the bioavailability [27] was 65%.
`CC1(C)COC(=O)N1C1CCN(C(=O)c2nc3c(C(F)(F)F)cc(-c4ccoc4)cn3c2Cl)CC1` showed a solubility [4] of over 500 µM, an EC50 (Hepatitis C virus [2]) of 31000 nM and an EC50 (Hepatitis C virus [3]) of 33000 nM. It also gave an IC50 (Hepatitis C virus [5]) of 9000 nM.
For `O=C(c1nc2c(C(F)(F)F)cc(-c3ccoc3)cn2c1Cl)N1CCC(N2CCCC2=O)CC1`, the solubility [4] was over 500 µM, the EC50 (Hepatitis C virus [2]) was 90 nM and the EC50 (Hepatitis C virus [3]) was 260 nM. For the same compound, the IC50 (Hepatitis C virus [5]) was 170 nM.
